Data taken from patent publication US20090143279A1 (priority 2007, published 2009).
Read-outs that look alike come from different tables or passages of the source.

Experiments:
cytochrome c = format: cell-based, mouse; settings: for cyt c (composite Z-score): normalized score vs mock-treated (DMSO) wells
OXPHOS gene expression = format: cell-based, mouse; settings: for GE-HTS (composite Z-score): normalized score vs mock-treated (DMSO) wells
C2C12 myotubes = settings: for Viability (composite Z-score): normalized score vs mock-treated (DMSO) wells
reactive oxygen species = format: cell-based, mouse; settings: for ROS (composite Z-score): normalized score vs mock-treated (DMSO) wells
nuOXPHOS transcripts = format: cell-based, mouse; settings: for nucOX (composite Z-score): normalized score vs mock-treated (DMSO) wells
[1] = tested on: mitochondrial membrane potential; format: cell-based, mouse; settings: for ΔΨm (composite Z-score): normalized score vs mock-treated (DMSO) wells
mtOXPHOS transcripts = format: cell-based, mouse; settings: for mitoOX (composite Z-score): normalized score vs mock-treated (DMSO) wells
[2] = tested on: cellular dehydrogenase activity; settings: for MTT (composite Z-score): normalized score vs mock-treated (DMSO) wells
[3] = composite Z-score vs DMSO, Conc 20 μM
[4] = 20 μM, composite Z-score vs DMSO
[5] = composite Z-score vs mock-treated (DMSO) wells, Conc 20 μM
[6] = Table 4, C2C12 myotubes, 48 h, composite Z-score
[7] = Table 4, C2C12 myotubes, 48 h, JC-1, composite Z-score
[8] = composite Z-score vs DMSO wells, Conc 20 μM
[9] = normalized composite Z-score vs mock-treated (DMSO) wells, Conc 20 μM

## C=C1C(=O)O[C@@H]2C[C@@]3(C)CCC[C@H](C)C3=C[C@H]12 [helenine]
Cytochrome c; [3]
  cyt c: −5.312
OXPHOS gene expression; [3]
  GE-HTS: −2.156
C2C12 myotubes; [3]
  Viability: −4.599
Reactive oxygen species; [3]
  ROS: −2.409
nuOXPHOS transcripts; [3]
  nucOX: −2.240
[1]; [3]
  ΔΨm: −3.676
mtOXPHOS transcripts; [3]
  mitoOX: −1.624
[2]; [3]
  MTT: −6.498

## COc1ccc([C@@H]2CC(=O)c3c(O)cc(O[C@@H]4O[C@H](CO[C@@H]5O[C@@H](C)[C@H](O)[C@@H](O)[C@H]5O)[C@@H](O)[C@H](O)[C@H]4O)cc3O2)cc1O [hesperidin]
Cytochrome c; [4]
  cyt c: 0.621
OXPHOS gene expression; [4]
  GE-HTS: −0.618
C2C12 myotubes; [4]
  Viability: 0.694
Reactive oxygen species; [4]
  ROS: −0.281
nuOXPHOS transcripts; [4]
  nucOX: −0.106
[1]; [4]
  ΔΨm: −0.251
mtOXPHOS transcripts; [4]
  mitoOX: −1.561
[2]; [4]
  MTT: −0.992

## CC1(C)S[C@@H]2[C@H](N3C(=O)[C@@H](c4ccccc4)NC3(C)C)C(=O)N2[C@H]1C(=O)O [hetacillin]
Cytochrome c; [3]
  cyt c: 0.731
OXPHOS gene expression; [3]
  GE-HTS: −0.200
C2C12 myotubes; [3]
  Viability: −0.642
Reactive oxygen species; [3]
  ROS: 1.132
nuOXPHOS transcripts; [3]
  nucOX: −0.094
[1]; [3]
  ΔΨm: −0.787
mtOXPHOS transcripts; [3]
  mitoOX: −0.302
[2]; [3]
  MTT: −0.663

## COc1cc(O)c2c(=O)cc(C)oc2c1CC=C(C)C [heteropeucenin, methyl ether]
Cytochrome c; [5]
  cyt c: 0.416
OXPHOS gene expression; [5]
  GE-HTS: 0.299
C2C12 myotubes; [5]
  Viability: −0.034
Reactive oxygen species; [5]
  ROS: 0.256
nuOXPHOS transcripts; [5]
  nucOX: 0.328
[1]; [5]
  ΔΨm: 0.886
mtOXPHOS transcripts; [5]
  mitoOX: 0.217
[2]; [5]
  MTT: −1.476

## CCC(C)C(OC(C)=O)C(=O)O[C@H]1[C@H](O)[C@@H]2[C@@]3(C)C=CC(=O)C(C)(C)[C@@H]3C[C@@H](OC(=O)C(O)C(C)C)[C@@]2(C)[C@@]23O[C@@H]2C[C@@H](c2ccoc2)[C@]13C (stereo partly drawn) [heudelottin C, reference compound]
Cytochrome c; Conc 20 μM
  cyt c (composite Z-score): 0.156
OXPHOS gene expression; Conc 20 μM
  GE-HTS (composite Z-score): −0.524
C2C12 myotubes; Conc 20 μM
  Viability (composite Z-score): −0.829
C2C12 myotubes; [6]
  Viability: −0.829
Reactive oxygen species; Conc 20 μM
  ROS (composite Z-score): 0.576
Reactive oxygen species; [6]
  ROS: 0.576
nuOXPHOS transcripts; Conc 20 μM
  nucOX (composite Z-score): −0.245
[1]; Conc 20 μM
  ΔΨm (composite Z-score): 0.373
[1]; [7]
  ΔΨm: 0.373
mtOXPHOS transcripts; Conc 20 μM
  mitoOX (composite Z-score): −1.006
[2]; Conc 20 μM
  MTT (composite Z-score): −0.393
[2]; [6]
  MTT: −0.393

## Oc1c(Cl)cc(Cl)c(Cl)c1Cc1c(O)c(Cl)cc(Cl)c1Cl [hexachlorophene]
Cytochrome c; [8]
  cyt c: −2.828
OXPHOS gene expression; [8]
  GE-HTS: −2.471
C2C12 myotubes; [8]
  Viability: −3.480
Reactive oxygen species; [8]
  ROS: −3.378
nuOXPHOS transcripts; [8]
  nucOX: −1.371
[1]; [8]
  ΔΨm: −2.559
mtOXPHOS transcripts; [8]
  mitoOX: −4.169
[2]; [8]
  MTT: −1.203

## C[N+](C)(C)CCCCCC[N+](C)(C)C [hexamethonium bromide]
Cytochrome c
  cyt c: −0.284
Cytochrome c; [8]
  cyt c: 0.087
OXPHOS gene expression; [8]
  GE-HTS: −0.735
C2C12 myotubes; [8]
  Viability: −0.378
Reactive oxygen species; [8]
  ROS: 0.176
nuOXPHOS transcripts; [8]
  nucOX: −0.806
[1]; [8]
  ΔΨm: −0.602
mtOXPHOS transcripts; [8]
  mitoOX: −0.442
[2]; [8]
  MTT: −1.179

## O=c1cc(-c2cc(O)c(O)c(O)c2)oc2cc(O)cc(O)c12 [hieracin, reference compound]
Cytochrome c; Conc 20 μM
  cyt c (composite Z-score): 0.057
OXPHOS gene expression; Conc 20 μM
  GE-HTS (composite Z-score): −0.648
C2C12 myotubes; Conc 20 μM
  Viability (composite Z-score): 1.425
C2C12 myotubes; [6]
  Viability: 1.425
Reactive oxygen species; Conc 20 μM
  ROS (composite Z-score): −0.329
Reactive oxygen species; [6]
  ROS: −0.329
nuOXPHOS transcripts; Conc 20 μM
  nucOX (composite Z-score): −0.421
[1]; Conc 20 μM
  ΔΨm (composite Z-score): −1.902
[1]; [7]
  ΔΨm: −1.902
mtOXPHOS transcripts; Conc 20 μM
  mitoOX (composite Z-score): −1.009
[2]; Conc 20 μM
  MTT (composite Z-score): −0.557
[2]; [6]
  MTT: −0.557

## COc1ccc2c(c1)O[C@H]1c3ccc(OC)cc3OC[C@@H]21 [homopterocarpin]
Cytochrome c; [9]
  cyt c: 0.575
OXPHOS gene expression; [9]
  GE-HTS: −0.918
C2C12 myotubes; [9]
  Viability: 0.549
Reactive oxygen species; [9]
  ROS: −0.616
nuOXPHOS transcripts; [9]
  nucOX: −0.713
[1]; [9]
  ΔΨm: −0.306
mtOXPHOS transcripts; [9]
  mitoOX: −1.126
[2]; [9]
  MTT: −0.578

## C/C1=C\CC/C(C)=C/CC(C)(C)/C=C/C1 [humulene]
Cytochrome c; [9]
  cyt c: −0.100
OXPHOS gene expression; [9]
  GE-HTS: −0.096
C2C12 myotubes; [9]
  Viability: −0.070
Reactive oxygen species; [9]
  ROS: 0.679
nuOXPHOS transcripts; [9]
  nucOX: −0.188
[1]; [9]
  ΔΨm: −0.232
mtOXPHOS transcripts; [9]
  mitoOX: 0.060
[2]; [9]
  MTT: −1.208

## CCCC(=O)O[C@]1(C(=O)CO)CC[C@H]2[C@@H]3CCC4=CC(=O)CC[C@]4(C)[C@H]3[C@@H](O)C[C@@]21C [hydrocortisone butyrate]
Cytochrome c; [4]
  cyt c: −0.064
OXPHOS gene expression; [4]
  GE-HTS: 0.666
C2C12 myotubes; [4]
  Viability: −1.654
Reactive oxygen species; [4]
  ROS: 1.234
nuOXPHOS transcripts; [4]
  nucOX: 0.514
[1]; [4]
  ΔΨm: −0.808
mtOXPHOS transcripts; [4]
  mitoOX: 0.916
[2]; [4]
  MTT: −0.932

## C[C@@H]1CC[C@@]2(OC1)O[C@H]1C[C@H]3[C@@H]4CC[C@H]5C[C@@H](O)CC[C@]5(C)C4=CC[C@]3(C)[C@H]1[C@@H]2C [hydroxy (3beta)isoallospirost-9 (11)-ene]
Cytochrome c; [9]
  cyt c: −0.048
OXPHOS gene expression; [9]
  GE-HTS: −0.457
C2C12 myotubes; [9]
  Viability: 0.035
Reactive oxygen species; [9]
  ROS: 0.244
nuOXPHOS transcripts; [9]
  nucOX: −0.619
[1]; [9]
  ΔΨm: −0.423
mtOXPHOS transcripts; [9]
  mitoOX: −0.081
[2]; [9]
  MTT: −1.944
